Assay results as given in ChEMBL document CHEMBL4334525, “Alopecuroides A-E, Matrine-Type Alkaloid Dimers from the Aerial Parts of Sophora alopecuroides” (J Nat Prod, 2019).
Activity calls are given as the source filed them. No cut-off for these calls is given here.

Assays:
RAW264.7 [1] = test: Cytotoxicity against mouse RAW264.7 cells at 50 uM after 24 hrs by MTT assay; type: cell-based; conditions: raw264.7, 24 h
RAW264.7 [2] = test: Cytotoxicity against mouse RAW264.7 cells at 50 uM after 24 hrs in presence of 1 ug/ml LPS by MTT assay; type: cell-based; conditions: raw264.7, 24 h
RAW264.7 [3] = test: Antiinflammatory activity against LPS-stimulated mouse RAW264.7 cells assessed as inhibition of LPS-induced TNFalpha production by measuring TNFalpha level at 50 uM preincubated for 2 hrs followed by LPS treatment and measured after 16 hrs by ELISA (reference value: 100 +/- 0.45%); type: functional
RAW264.7 [4] = test: Antiinflammatory activity against LPS-stimulated mouse RAW264.7 cells assessed as inhibition of LPS-induced IL-6 production by measuring IL-6 level at 50 uM preincubated for 2 hrs followed by LPS treatment and measured after 16 hrs by ELISA (reference value: 100 +/- 1.33%); type: functional; set-up: scale not given: the % may be the effect or the level left

| Structure (SMILES) | Activity (RAW264.7 [1]) | Activity (RAW264.7 [2]) | TNFalpha level (% of LPS control) (RAW264.7 [3]) [%] | Activity (RAW264.7 [4]) |
| --- | --- | --- | --- | --- |
| O=C1CCC[C@@H]2[C@H]3CCCN4CC([C@@H]5CC[C@H]6[C@@H]7[C@@H](CCCN75)CN5C(=O)CCC[C@H]65)=C[C@@H](CN12)[C@@H]34 | Non-Toxic | Non-Toxic | 70.86 | 60.08% |
| N#C[C@H]1N2CCC[C@H]3[C@@H]2[C@H](CN2C(=O)CCC[C@H]32)[C@H]2O[C@]21[C@@H]1CC[C@H]2[C@@H]3[C@@H](CCCN31)CN1C(=O)CCC[C@H]21 | Non-Toxic | Non-Toxic | 96.64 | 67.85% |
| O=C1CCC[C@@H]2[C@H]3CCCN[C@H]3[C@H](CCC[C@H]3C[C@H]4CN5C(=O)CCC[C@@H]5[C@H]5CCCN(C3)[C@@H]45)CN12 | Non-Toxic | Non-Toxic | 69.14 | inactive |
| O=C1CCC[C@@H]2[C@H]3CC([C@H]4CC[C@H]5CN6C(=O)CCC[C@@H]6[C@H]6CCCN4[C@@H]56)=CN4CCC[C@@H](CN12)[C@@H]34 | Non-Toxic | Non-Toxic | 49.59 | 73.9% |
| N#C[C@@H]1N2CCC[C@H]3CN4C(=O)CCC[C@@H]4[C@H]([C@H]32)[C@@H]2O[C@]12[C@H]1CC[C@H]2CN3C(=O)CCC[C@@H]3[C@H]3CCCN1[C@@H]23 | Non-Toxic | Non-Toxic | 50.05 | 52.87% |
| O=C1CCC[C@@H]2[C@H]3CCCN4CCC[C@@H](CN12)[C@@H]34 [MATRINE] | – | – | 72.48 | 65.49% |
